# US20240299406A1, “NEURONAL NICOTINIC ACETYLCHOLINE RECEPTOR PARTIAL AGONISTS AS THERAPEUTICS FOR CHRONIC TINNITUS” (Board of Trustees of Southern Illinois University, priority 2019, published 2024)
# Entries after “also recorded” stand apart in the source; their conditions may differ.
# Key:
# [1] = non-specific drug effects (cage observation, session lever pressing); assay type: in vivo, rats
# Method: FIG. 10 illustrates the data for a non-specific effect. The non-specific effects appeared 10 to 15 min after treatment but were not present 1 hr after treatment, i.e., at the beginning of the test period.
# (§1) Sterile normal saline was considered a pharmaceutically acceptable carrier, but other pharmaceutically acceptable carriers may also be used as a substitute. All animals, unexposed controls and sound-exposed, were drug treated and tested in parallel. […] Dose levels of 0.1, 0.5, and 1 mg/kg were tested for therapeutic effect, over a minimum of 3 consecutive days for each dose level. Washout periods of 1 to 5 weeks (5 test sessions per week) intervened between drug-testing, as required to recover pre-drug baseline tinnitus performance.
# At 1 mg/kg. […] Within 10 min of drug treatment all animals assumed a prone resting position in their home cage, which lasted about 10 min. Afterward animals resumed normal cage activity, e.g., moving about, grooming, sniffing. […] This behavior was not observed in washout or saline (vehicle) sessions, nor was it observed in the remaining 15 animals. Mild sedation was indicated by a decrease in total bar pressing at 1.0 mg/kg (FIG. 10).
# [2] = system: rats with behavioral evidence of tinnitus; experiment: operant conditioned-suppression behavioral test for tinnitus (suppression ratio, 20 kHz test series); assay type: in vivo, Long Evans rats; details: for evidence of tinnitus: SC injection
# Excerpt: Unilaterally sound-exposed animals were used to study the effects of sazetidine on tinnitus. Experiments used an established behavioral psychoacoustic test to determine whether sazetidine could ameliorate tinnitus in subjects (rats) with behavioral evidence of tinnitus. Three months following sound-exposure, animals with tinnitus show consistent difficulty identifying silence. Sounds of varying intensity/levels were presented to sound-exposed (tinnitus) and unexposed (non-tinnitus control) subjects. The animals' behavior, quantified as a suppression ratio, indicated their level of tinnitus. Greater suppression, i.e., a decrease in lever pressing, indicates the presence of tinnitus.
# The present study examined the potential therapeutic effect of sazetidine and varenicline to ameliorate tinnitus in rats with behavioral evidence of tinnitus. For two decades, an operant-behavior model has been used to investigate tinnitus pathology. In this model, animals are taught to attend closely to their auditory sensations using a conditioned suppression procedure: Animals lever press for food pellets in the presence of low-level background sounds, randomly punctuated by sound-off (silence) periods. Sound-off (silence) lever pressing earns food pellets but leads to a mild foot shock at the conclusion of the sound off presentation. The animals are therefore conditioned to stop lever pressing when the external sound is off, i.e., conditioned suppression. In this paradigm, the animals are conditioned to attend to their sound environment, and when tones of different frequencies and levels/intensities are substituted for some of the sound-off periods, the attendant behavior can be used to derive psychometric functions indicative of tinnitus.
# Sixteen, 96-day old Long Evans rats (Envigo, Indianapolis, IN, USA) were anesthetized with a 1.7 percent isoflurane/02 mixture, placed in a head holder. A Fostex speaker (FT17H, Akashima, Japan) was attached to a 2 cm length of flexible tubing positioned at the entrance of the right ear canal. Eight randomly selected rats were unilaterally exposed once to band-limited noise for 1 hr, with a peak level of 120 dB (SPL) centered at 16 kHz, falling to ambient levels at 8 kHz and 24 kHz. During sound-exposure, the contralateral canal was obstructed by a canal-fitted plastic plug/tube from the contralateral speaker. Auditory brainstem responses (ABRs), which measure hearing, were obtained before and after exposure for pure tones at 8, 10, 12, 16, 20, 24, and 32 kHz, presented in 10 dB decrements between 95 and 5 dB (SPL re […]). Eight unexposed animals were similarly tested. Tinnitus testing began 3 months following sound-exposure and hearing-level determination.
# Sazetidine A dihydrochloride (batch 2A/187725) was obtained in solid form, from Tocris Bioscience (Minneapolis, MN, USA). The drug was dissolved in sterile normal saline at a concentration of 2 mg/ml, or less, and administered as a subcutaneous injection (SC) 1 hour prior to behavioral testing.
# Varenicline, varenicline tartrate, was purchased from Santa Cruz Biotechnology, Inc. (Dallas, Texas, USA). The drug was dissolved in sterile normal saline at a concentration of 1 mg/ml, or less, and administered as a SC injection 1 hour prior to behavioral testing.
# as §1
# Prior to the start of drug testing, each group was optimized to five rats per group. […]
# α3β4 nAChRs [3] = molecular target: T1, α3β4 nAChRs (Homo sapiens, UniProt P30926+P32297); details: cited from earlier work
# T1 sequence (P32297 32-505): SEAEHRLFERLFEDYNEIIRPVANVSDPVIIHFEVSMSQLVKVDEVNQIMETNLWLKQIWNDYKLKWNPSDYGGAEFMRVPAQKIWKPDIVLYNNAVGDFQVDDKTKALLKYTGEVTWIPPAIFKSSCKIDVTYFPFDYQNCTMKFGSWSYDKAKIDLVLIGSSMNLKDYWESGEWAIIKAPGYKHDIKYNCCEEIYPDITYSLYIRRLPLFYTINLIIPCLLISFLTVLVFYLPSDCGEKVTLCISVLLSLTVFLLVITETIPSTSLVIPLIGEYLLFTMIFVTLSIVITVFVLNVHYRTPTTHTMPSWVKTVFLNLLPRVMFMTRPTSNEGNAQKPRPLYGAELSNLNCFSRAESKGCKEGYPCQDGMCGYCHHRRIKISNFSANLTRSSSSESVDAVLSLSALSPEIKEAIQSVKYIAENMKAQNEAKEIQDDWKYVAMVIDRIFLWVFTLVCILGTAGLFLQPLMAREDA
# T1 sequence (P30926 22-498): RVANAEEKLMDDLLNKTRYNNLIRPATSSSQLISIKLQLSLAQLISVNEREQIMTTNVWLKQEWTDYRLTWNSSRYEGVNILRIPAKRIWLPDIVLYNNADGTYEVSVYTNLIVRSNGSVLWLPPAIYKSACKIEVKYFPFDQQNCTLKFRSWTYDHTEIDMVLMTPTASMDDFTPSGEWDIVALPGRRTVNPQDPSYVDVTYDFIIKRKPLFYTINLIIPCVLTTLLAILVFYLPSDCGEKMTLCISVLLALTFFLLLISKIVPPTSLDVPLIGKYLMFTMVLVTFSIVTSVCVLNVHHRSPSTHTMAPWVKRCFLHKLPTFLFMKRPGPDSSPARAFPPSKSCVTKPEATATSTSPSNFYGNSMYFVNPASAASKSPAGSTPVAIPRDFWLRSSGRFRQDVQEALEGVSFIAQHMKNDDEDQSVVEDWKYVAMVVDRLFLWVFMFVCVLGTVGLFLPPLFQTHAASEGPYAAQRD
# α7 nAChRs [4] = molecular target: T2, α7 nAChRs (Homo sapiens, UniProt P36544); details: cited from earlier work
# T2 sequence (P36544 23-502): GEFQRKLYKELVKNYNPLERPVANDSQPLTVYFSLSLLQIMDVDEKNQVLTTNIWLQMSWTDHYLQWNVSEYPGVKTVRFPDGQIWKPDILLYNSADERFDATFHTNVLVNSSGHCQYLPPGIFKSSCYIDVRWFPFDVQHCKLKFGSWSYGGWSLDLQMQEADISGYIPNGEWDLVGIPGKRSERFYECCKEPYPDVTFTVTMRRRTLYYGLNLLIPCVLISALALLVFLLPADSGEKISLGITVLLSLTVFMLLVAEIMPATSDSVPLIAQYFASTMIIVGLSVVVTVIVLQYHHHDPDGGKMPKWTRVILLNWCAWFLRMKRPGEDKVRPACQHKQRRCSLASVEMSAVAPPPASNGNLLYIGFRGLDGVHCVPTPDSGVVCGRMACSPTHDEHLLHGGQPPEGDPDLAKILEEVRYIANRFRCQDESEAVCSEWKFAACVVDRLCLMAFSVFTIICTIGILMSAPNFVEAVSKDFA
# α4β2 nAChRs = α4β2 nAChRs (Homo sapiens, UniProt P17787+P43681); details: cited from earlier work; for affinity for β2-containing nAChRs: partial nAChR agonists
# Chain of α4β2 nAChRs (P43681 29-627 limits assumed): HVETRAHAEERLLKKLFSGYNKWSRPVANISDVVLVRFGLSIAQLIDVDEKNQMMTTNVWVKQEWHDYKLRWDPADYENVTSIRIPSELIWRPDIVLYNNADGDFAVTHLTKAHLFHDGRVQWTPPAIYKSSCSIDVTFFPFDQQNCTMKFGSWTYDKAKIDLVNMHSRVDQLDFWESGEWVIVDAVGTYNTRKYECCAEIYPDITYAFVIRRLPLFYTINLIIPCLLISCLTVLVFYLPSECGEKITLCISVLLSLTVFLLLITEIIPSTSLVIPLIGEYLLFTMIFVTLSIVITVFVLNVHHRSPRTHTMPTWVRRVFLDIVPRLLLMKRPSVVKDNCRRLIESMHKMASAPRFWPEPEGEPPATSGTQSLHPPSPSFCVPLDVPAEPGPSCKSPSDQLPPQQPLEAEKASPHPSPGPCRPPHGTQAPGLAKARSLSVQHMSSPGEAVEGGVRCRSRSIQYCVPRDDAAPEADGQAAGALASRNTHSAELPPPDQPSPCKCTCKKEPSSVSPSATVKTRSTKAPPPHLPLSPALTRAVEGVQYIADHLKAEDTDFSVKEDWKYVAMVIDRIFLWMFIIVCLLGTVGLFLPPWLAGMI
# Chain of α4β2 nAChRs (P17787 26-502): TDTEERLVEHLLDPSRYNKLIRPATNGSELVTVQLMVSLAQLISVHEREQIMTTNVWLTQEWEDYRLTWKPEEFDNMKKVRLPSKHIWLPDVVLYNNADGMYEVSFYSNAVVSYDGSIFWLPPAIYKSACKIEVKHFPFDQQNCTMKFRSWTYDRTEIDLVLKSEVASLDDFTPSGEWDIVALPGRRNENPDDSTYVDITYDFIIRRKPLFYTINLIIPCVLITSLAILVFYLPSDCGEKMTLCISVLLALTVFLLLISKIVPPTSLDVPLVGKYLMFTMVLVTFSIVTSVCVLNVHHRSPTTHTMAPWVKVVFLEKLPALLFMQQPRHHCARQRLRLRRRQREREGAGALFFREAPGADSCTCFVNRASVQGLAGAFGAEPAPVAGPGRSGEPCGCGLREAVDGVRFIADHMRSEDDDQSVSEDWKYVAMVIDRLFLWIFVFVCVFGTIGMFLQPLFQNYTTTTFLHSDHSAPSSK
# α7 nAChRs [5] = molecular target: T2, α7 nAChRs; details: cited from earlier work; remark: listed apart in the source
# [6] = system: rats with behavioral evidence of tinnitus; experiment: operant conditioned-suppression behavioral test for tinnitus (suppression ratio, 20 kHz test series); assay type: in vivo, Long Evans rats; details: 0.5 mg/kg; 12 animals with tinnitus compared to 8 unexposed controls
# α3β4 nAChRs [7] = molecular target: T1, α3β4 nAChRs; details: at lower affinity; cited from earlier work
smiles,measurement,setting,value
OCCCCC#Cc1cncc(OC[C@@H]2CCN2)c1 [sazetidine],sedation (decrease in total bar pressing),"[1]; 1.0 mg/kg, FIG. 10",Mild sedation
same,"excess salivation, share of animals","[1]; 1.0 mg/kg, visual evidence",about a third of the animals
same,non-specific effects at the beginning of the test period,"[1]; 1 hr after treatment, FIG. 10",not present
same,non-specific drug effects,[1]; FIG. 10,evident at 1 mg/kg
same,time of appearance of non-specific effects after treatment,[1]; FIG. 10,10 to 15 min
same,"time to prone resting position in home cage, all animals",[1]; after drug treatment,≤ 10 min
same,sedation (decrease in session lever pressing),"[1]; higher doses, FIG. 10",some general sedation
same,duration of prone resting position,"[1]; rat, in vivo",about 10 min
same,"drug-dependent agitation, animals affected",[1]; sound-exposed animal without evidence of tinnitus,One animal (out of 16)
same,therapeutic effect on tinnitus,"[2]; 0.1 mg/kg SC, FIG. 9",potentially weak therapeutic effect
same,tinnitus dose-response (tinnitus suppression ratio),"[2]; 0.1 mg/kg to 1.0 mg/kg SC, FIG. 11",Therapeutic effect increased with dose; also recorded: effectiveness increases as the dose is increased
same,suppression curve of tinnitus animals versus unexposed control animals,"[2]; 0.5 mg/kg SC, FIG. 8",no longer significantly different
same,suppression curve of tinnitus animals versus unexposed control animals,"[2]; 1 mg/kg SC, first test, FIG. 2",no longer significantly different
same,suppression curve of tinnitus animals versus unexposed control animals,"[2]; 1 mg/kg SC, second test (1st replication), FIG. 5",again no longer significantly different
same,therapeutic effect on tinnitus,"[2]; 1 mg/kg SC, third test (2nd replication), one week after 1st replication, FIG. 6",No therapeutic effect was observed
same,evidence of tinnitus,[2]; 0.1 mg/kg,significantly reduced evidence of tinnitus
same,evidence of tinnitus,[2]; 0.5 mg/kg,effectively and significantly decreased evidence of tinnitus
same,evidence of tinnitus,[2]; 1 mg/kg,effectively and significantly decreased evidence of tinnitus
same,dose level at which statistical effectiveness begins,"[2]; SC, FIG. 11",about 0.5 mg/kg
same,suppression curve of tinnitus animals versus unexposed control animals,"[2]; five weeks following initial treatment, saline SC before test, FIG. 4",again statistically significantly different
same,suppression curve of tinnitus animals versus unexposed control animals,"[2]; one week following initial treatment, washout, FIG. 3",remain similar to control
same,tinnitus-related symptoms/lever pressing,[2]; treatment 1 hour before testing,decreased tinnitus-related symptoms/lever pressing
same,selectivity for α4β2 nAChRs compared to α3β4 nAChRs,α3β4 nAChRs [3],"> 20,000 fold"
same,selectivity for α4β2 nAChRs relative to α7 nAChRs,α7 nAChRs [4],"3,500 fold"
same,concentration that desensitizes α4β2 nAChRs,α4β2 nAChRs,low nanomolar concentrations
same,affinity for β2-containing nAChRs,α4β2 nAChRs,very high affinity
"c1cnc2cc3c(cc2n1)C1CNCC3C1 [varenicline, 7,8,9,10-tetrahydro-6,10-methano-6H-pyrazino[2,3-h][3]-benzazepine]",type of action at α7 nAChRs,α7 nAChRs [5],full agonist activity
same,suppression curve of tinnitus animals versus unexposed control animals,"[2]; 0.5 mg/kg SC, FIG. 13",no longer significantly different
same,linearity of tinnitus reduction across doses,[2]; doses between 0.1 and 1.0 mg/kg,not-linear
same,reduction of evidence of tinnitus,[6],47%
same,selectivity for α4β2 nAChRs compared to α3β4 nAChRs,α3β4 nAChRs [3],"4,000-5,000 fold"
same,type of action at α3β4 nAChRs,α3β4 nAChRs [7],partial agonist actions
same,selectivity for α4β2 nAChRs relative to α7 nAChRs,α7 nAChRs [4],"4,000-5,000 fold"
same,concentration that desensitizes α4β2 nAChRs,α4β2 nAChRs,low nanomolar concentrations
same,affinity for β2-containing nAChRs,α4β2 nAChRs,very high affinity
